Results published in US20240398824A1, “Inhibition Of Rip Kinases For Treating Neurodegenerative Disorders” (The Johns Hopkins University, priority 2018, published 2024).

System: BV-2 microglia
Experiment: Real-time PCR of C1q, IL-6 and TNFα in AβO-activated BV-2 microglia
Assay type: cell-based
Design: key to mRNA levels of C1q / mRNA levels of IL-6 / mRNA levels of TNFα: relative expression normalized to GAPDH by 2^-ΔΔCt; PBS = 1
Settings: for mRNA levels of IL-6 / mRNA levels of C1q / mRNA levels of TNFα: BV-2 microglia preincubated 1 h with inhibitor 1 μM, then AβO 5 μM 4 h, ±SD; for mRNA levels of IL-6: PBS = 1 ± 0.08, Abeta alone 12.53 ± 0.59; for mRNA levels of C1q: PBS = 1 ± 0.13, Abeta alone 3.7 ± 0.06; for mRNA levels of TNFα: PBS = 1 ± 0.16, Abeta alone 16.19 ± 3.21; for microglial activation / release of multiple inflammatory mediators including C1q, IL-6 and TNFα: inhibitor 1 μM pretreatment, AβO 5 μM, in words
Experimental: Synthetic Abeta1-42 oligomers were generated as previously described (PMID: 27834631). Hydroxyfluroisopropanol (HFIP)-treated synthethic Abeta1-42 peptides (rPeptide, Bogart, GA, USA) were dissolved in dimethylsulfoxide (DMSO) and further diluted in phosphate-buffered saline (PBS) to obtain a 250 μM stock solution. The stock solution was incubated at 4° C. for at least 24 hours and stored at −80° C. until use. Before use, the solution was centrifuged at 12,000 g for 10 minutes and the supernatant was used as an oligomeric Aβ.
BV-2 microglial cells were cultured in DMEM media. 10^6 of BV-2 microglia in 6 well plate were treated with 2.5 μM of Abeta for 4 hrs. Total RNA from cultured cells was extracted with a RNA isolation kit (Qiagen, Valencia, CA, USA) following manufacturer's instructions. RNA concentration was measured spectrophotometrically using a NanoDrop 2000 (Thermo scientific). Subsequently, 2 μg of total RNA was reverse transcribed to cDNA using the High-Capacity cDNA Reverse Transcription System (Life Technologies, Grand Island, NY, USA). Comparative qPCR was performed using fast SYBR Green Master Mix (Life Technologies) and steponeplus real-time pcr system (Applied Biosystems, Foster City, CA, USA). The expression levels of target genes were normalized to the expression of GAPDH and calculated based on the comparative cycle threshold Ct method^−ΔΔ(2) Ct. (n=3)
To examine the effect of RIPK2 inhibition, 10^6 of BV-2 microglia in 6 well plate were preincubated with DMSO, GSK583 (1 μM, Medchemexpress), OD361 (1 μM, Calbiochem), or Sorafenib (1 μM) for one hour. For mRNA analysis, 5 μM of AβO was treated additional for 4 hours.

Compound | mRNA levels of IL-6 | mRNA levels of C1q | mRNA levels of TNFα | microglial activation | release of multiple inflammatory mediators including C1q, IL-6 and TNFα
Clc1cc2cc(c1)-c1cnn3c1NC(=NCCOCCO2)C=C3 [OD36, 6-Chloro-10,11,14,17-tetrahydro-13H-1,16-etheno-4,8-metheno-1H-pyrazolo[3,4-g][1,14,4,6]dioxadiazacyclohexadecine] | 7.64 ± 0.48 | 0.85 ± 0.12 | 5.85 ± 0.03 | blocked microglial activation | significantly reduced
CNC(=O)c1cc(Oc2ccc(NC(=O)Nc3ccc(Cl)c(C(F)(F)F)c3)cc2)ccn1 [Sorafenib] | 7.13 ± 0.71 | 3.3 ± 0.09 | 9.69 ± 0.47 | blocked microglial activation | significantly reduced
